Earlier results on 2 molecules are cited in US20070203190A1, “Hydroxylamines and derivatives for the inhibition of complement activation” (priority 2006, published 2007).

Data set [1] relates to complement activation. To be noted: in vivo animal models.
Data set [2] addresses MAC.

For “sCR1: a recombinant form of complement receptor 1 known as soluble complement receptor 1”, in data set [1], the “suppression of complement activation” value was “suppress complement activation”.

B1: CD59: blocks assembly of the MAC; proposed as a potential therapeutic agent (protein, UniProt P13987 26-102, looked up)
CD59 glycoprotein: LQCYNCPNPTADCKTAVNCSSDFDACLITKAGLQVYNKCWKFEHCNFNDVTTRLRENELTYYCCKKDLCNFNEQLEN
Consider B1, for which the activity in vitro result in data set [2] is reported as “limited activity”.
